Test results taken from ChEMBL document CHEMBL1132685, “Nonpeptide glycoprotein IIB/IIIA inhibitors. 19. A new design paradigm employing linearly minimized, centrally constrained, exosite inhibitors” (Bioorg Med Chem Lett, 1999).

Each compound was assayed against Integrin alpha-IIb/beta-3 (Homo sapiens, UniProt P05106+P08514) (assay: Inhibition of glycoprotein IIb/III integrin mediated fibrinogen binding to activated platelets).
Sequence of Integrin alpha-IIb/beta-3 (P05106 27-788 limits assumed): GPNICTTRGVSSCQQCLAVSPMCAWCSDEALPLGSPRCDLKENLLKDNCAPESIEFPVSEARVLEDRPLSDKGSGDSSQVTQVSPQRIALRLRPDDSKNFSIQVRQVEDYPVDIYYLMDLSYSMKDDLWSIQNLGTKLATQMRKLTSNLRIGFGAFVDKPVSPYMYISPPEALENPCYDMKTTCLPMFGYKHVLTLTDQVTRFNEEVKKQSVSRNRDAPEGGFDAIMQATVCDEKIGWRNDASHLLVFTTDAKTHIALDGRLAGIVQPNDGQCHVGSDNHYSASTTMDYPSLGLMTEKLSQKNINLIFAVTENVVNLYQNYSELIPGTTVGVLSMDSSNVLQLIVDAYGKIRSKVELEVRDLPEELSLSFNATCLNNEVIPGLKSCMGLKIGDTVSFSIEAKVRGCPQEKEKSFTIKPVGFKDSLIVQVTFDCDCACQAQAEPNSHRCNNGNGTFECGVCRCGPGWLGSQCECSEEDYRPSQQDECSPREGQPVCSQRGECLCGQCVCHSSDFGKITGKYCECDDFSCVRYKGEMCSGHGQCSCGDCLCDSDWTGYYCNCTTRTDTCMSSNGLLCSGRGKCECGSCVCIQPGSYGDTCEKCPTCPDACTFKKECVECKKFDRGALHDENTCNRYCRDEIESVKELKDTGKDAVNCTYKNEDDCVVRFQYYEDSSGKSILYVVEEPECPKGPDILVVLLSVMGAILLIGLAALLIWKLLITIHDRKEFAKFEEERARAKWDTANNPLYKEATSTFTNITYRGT
Sequence of Integrin alpha-IIb/beta-3 (P08514 32-887 limits assumed): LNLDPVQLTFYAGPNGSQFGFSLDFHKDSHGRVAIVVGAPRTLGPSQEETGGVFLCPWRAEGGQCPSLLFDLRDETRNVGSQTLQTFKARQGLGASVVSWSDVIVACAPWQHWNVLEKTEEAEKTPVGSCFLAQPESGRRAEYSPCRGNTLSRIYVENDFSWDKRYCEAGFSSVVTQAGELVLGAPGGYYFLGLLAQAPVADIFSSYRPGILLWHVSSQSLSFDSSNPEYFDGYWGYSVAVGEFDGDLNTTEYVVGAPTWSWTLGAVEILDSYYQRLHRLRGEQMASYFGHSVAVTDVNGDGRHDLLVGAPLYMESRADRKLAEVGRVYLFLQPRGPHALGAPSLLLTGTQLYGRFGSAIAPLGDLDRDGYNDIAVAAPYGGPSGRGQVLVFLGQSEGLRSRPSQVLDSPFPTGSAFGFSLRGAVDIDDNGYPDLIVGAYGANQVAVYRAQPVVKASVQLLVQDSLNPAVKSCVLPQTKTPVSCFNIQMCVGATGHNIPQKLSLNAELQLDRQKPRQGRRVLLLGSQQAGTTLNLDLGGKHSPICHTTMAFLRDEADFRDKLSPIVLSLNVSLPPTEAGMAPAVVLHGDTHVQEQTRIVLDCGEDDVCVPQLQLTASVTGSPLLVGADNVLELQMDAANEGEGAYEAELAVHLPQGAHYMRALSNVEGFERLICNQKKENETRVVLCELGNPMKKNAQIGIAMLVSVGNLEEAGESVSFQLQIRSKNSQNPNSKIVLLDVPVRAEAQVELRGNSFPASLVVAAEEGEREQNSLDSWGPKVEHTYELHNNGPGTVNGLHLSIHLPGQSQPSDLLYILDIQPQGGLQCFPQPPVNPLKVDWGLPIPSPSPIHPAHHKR
Sequence of Integrin alpha-IIb/beta-3 (P08514 891-1039 limits assumed): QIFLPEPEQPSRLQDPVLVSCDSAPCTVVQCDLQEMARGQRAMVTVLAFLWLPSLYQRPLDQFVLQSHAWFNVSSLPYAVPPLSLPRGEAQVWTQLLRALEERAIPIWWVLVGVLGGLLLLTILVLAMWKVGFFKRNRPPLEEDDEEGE
Assay type: functional
With `NCCOc1cccc(C(=O)NC[C@H](NS(=O)(=O)c2ccccc2)C(=O)O)c1` the IC50 was 9200 nM.
Compound `O=C(O)CCNC(=O)c1ccc(N2CCNCC2)cc1` has an IC50 of 230000 nM.
`NCCCCC(=O)NCC(=O)NC[C@@H](NS(=O)(=O)c1ccccc1)C(=O)O` was tested, and the IC50 was 29000 nM.
`NCCCCCCC(=O)NCC(=O)NC[C@@H](NS(=O)(=O)c1ccccc1)C(=O)O` was tested, and the IC50 was 380 nM.
Work on `O=C(NC[C@H](NS(=O)(=O)c1ccccc1)C(=O)O)c1ccc(CCC2CCCCN2)cc1` (some centres undefined) yielded an IC50 of 130 nM.
Compound `NCCCCCOc1ccc(C(=O)NC[C@H](NS(=O)(=O)c2ccccc2)C(=O)O)cc1` has an IC50 of 13 nM.
For `O=C(NC[C@H](NS(=O)(=O)c1ccccc1)C(=O)O)c1ccc(CN2CCNCC2)cc1`, the IC50 was 34 nM.
In the case of `NCCCC(=O)NCC(=O)NC[C@@H](NS(=O)(=O)c1ccccc1)C(=O)O`, the IC50 is reported as over 30000 nM.
`NCCCCOc1ccc(C(=O)NC[C@H](NS(=O)(=O)c2ccccc2)C(=O)O)cc1` was tested, and the IC50 was 23 nM.
In the case of `NCCCc1ccc(C(=O)NC[C@H](NS(=O)(=O)c2ccccc2)C(=O)O)cc1`, the IC50 is reported as 270 nM.
For `NCCCCCC(=O)NCC(=O)NC[C@@H](NS(=O)(=O)c1ccccc1)C(=O)O`, the IC50 was 2800 nM.
`NCCc1ccc(C(=O)NC[C@H](NS(=O)(=O)c2ccccc2)C(=O)O)cc1` showed an IC50 of 4900 nM.
Compound `NCCCOc1ccc(C(=O)NC[C@H](NS(=O)(=O)c2ccccc2)C(=O)O)cc1` has an IC50 of 55 nM.
With `NCCOc1ccc(C(=O)NC[C@H](NS(=O)(=O)c2ccccc2)C(=O)O)cc1` the IC50 was 110 nM.
